The term koff denotes the rate constant with which the complex falls apart. One may read the kon as a measure of how fast the partners come together. A higher kon goes with fast association. As usually defined, the residence time is the mean lifetime of the complex, commonly the reciprocal of the off-rate.

The text below walks through data of patent US20180353501A1 (Arvinas, Inc., priority 2017, published 2018).

For test [1], the target named is T1, p38δ:PROTAC:VHL ternary complex (Homo sapiens, UniProt O15264+P40337).
T1 construct: encoding a region spanning amino acids 1-365 was PCR-amplified; His6 (N); made in house; host or cells: E. coli (BL21-CodonPlus(DE3)-RIPL for p38δ; BL21(DE3) for GST-VBC)
Description: SPR ternary complex affinity and kinetics. Format: binding. The following applies: for Kd: equimolar p38δ:PROTAC injected onto immobilized GST-VBC. As for the experimental part: FIGS. 16A, 16B, and 16C. SPR curves assessing binary and ternary interactions. […] (C) SPR kinetic evaluation of p38δ:compound 46:VHL and p38δ:compound 50:VHL ternary complex interactions. Equimolar p38δ:PROTAC mixtures were injected onto immobilized GST-VBC and allowed to dissociate overtime. […] See Table 12 for a summary of the binary and ternary affinity and kinetic measurements.
Next, with the same setup, equimolar p38δ:PROTAC dilutions were successively injected onto immobilized VHL for 60 seconds, prior to monitoring complex dissociation for the remaining 300 seconds. This SPR strategy enabled us to determine effective ternary affinities for a given p38δ:PROTAC:VHL complex and compare the relative affinity change that occurs between VHL:PROTAC when p38δ is present in the mixture. […] This “enhanced” composite affinity is likely due to the additional PPIs between VHL and p38δ when in the presence of exemplary compound 46.
SPR experiments were conducted on a Biacore 3000 instrument (GE Healthcare) at room temperature. GST antibody was immobilized through direct amination onto a carboxymethylated dextran surface (CM5) and GST-VBC was captured on the CM5 surface. This prepared surface was equilibrated over three hours in running buffer (10 mM HEPES buffer pH 7.4, 150 mM NaCl, 0.4 mg mL^−1 BSA, 0.005% P20, 2% DMSO). All compounds were prepared in 100% DMSO stock plates with a top concentration of 500 μM in a 3× serial dilution. Exemplary compounds were transferred from the stock plate to the assay plate and diluted into running buffer without DMSO. Equimolar concentration of target protein was added to corresponding compound wells. All exemplary compounds were run as a twelve point-concentration series with a final assay top concentration of 50 μM to measure p38δ:PROTAC and VHL:PROTAC binding and top concentration of 5 μM to measure p38δ:PROTAC:VHL binding. All exemplary compounds were injected for 60 seconds and allowed to dissociate for 300 seconds. Data analysis was performed in Scrubber 2 (BioLogic Software). Blanks from reference flow cell containing immobilized GST-VBC were subtracted to correct for noise and data was solvent-corrected against a standard DMSO curve.

Test [2] relates to p38α and p38δ mRNA. In words: Quantitative real-time PCR in MDA-MB-231 cells. Format: cell-based. The following applies: 250 nM, 24 hours. The procedure:
FIGS. 13A, 13B, 13C, and 13D. Exemplary compounds 50 and 46 degrade p38 isoforms in a manner that is rapid, sustained, and proteasome-dependent. (A) MDA-MB-231 cells were either pre-treated or not with the proteasome inhibitor epoxomicin (1 μM) or the neddylation inhibitor MLN4924 (1 μM) for 30 minutes and subsequently treated with either vehicle (DMSO), exemplary compound 50 (250 nM), or exemplary compound 46 (250 nM) for 6 hours. (B) Quantitative real-time PCR was performed after 24 hours of treatment with either vehicle (DMSO), exemplary compound 50 (250 nM), or exemplary compound 46 (250 nM) in MDAMB-231 cells. […]
MDA-MB-231 cells were plated at 3×10^5 cells per well in a 6-well dish, allowed to adhere, and were treated with either vehicle (DMSO) or PROTAC (250 nM) for 24 hours. […] RNA pellet was washed twice with 75% EtOH and allowed to air dry for 15 minutes, after which RNA was dissolved in 25 μL of nuclease-free H2O. cDNA was synthesized from 4 μg of total RNA per condition according to the manufacturer's protocol (Applied Biosystems) and real-time PCR was performed with 800 nM primers, diluted with 4 μL SYBR Green Reaction Mix (Applied Biosystems). qRT-PCR samples were performed and analyzed in triplicate, from two independent experiments. […]
On the technique in general: Quantitative PCR measures a nucleic acid by following its amplification.

Setting [3] is: SPR, immobilized GST-VBC, listed as Ex. 50.

The structures appear in SMILES notation. “And” between values parts separate entries of the source, which are not always exact repeats. Identical values can stand only once. Like-named read-outs stand apart in the source and are kept apart here.

T1 sequence (O15264 whole entry, the tested form may be a part): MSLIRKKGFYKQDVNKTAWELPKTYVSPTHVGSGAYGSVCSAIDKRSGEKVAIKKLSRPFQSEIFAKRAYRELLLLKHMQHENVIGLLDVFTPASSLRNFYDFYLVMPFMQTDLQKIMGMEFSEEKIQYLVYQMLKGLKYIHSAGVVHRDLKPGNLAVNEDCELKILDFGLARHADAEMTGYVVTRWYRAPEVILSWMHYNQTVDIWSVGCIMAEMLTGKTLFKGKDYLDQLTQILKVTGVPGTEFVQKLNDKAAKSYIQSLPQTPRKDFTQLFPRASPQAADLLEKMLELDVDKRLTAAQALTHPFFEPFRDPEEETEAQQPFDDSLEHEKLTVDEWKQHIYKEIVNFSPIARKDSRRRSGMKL
T1 sequence (P40337 whole entry, the tested form may be a part): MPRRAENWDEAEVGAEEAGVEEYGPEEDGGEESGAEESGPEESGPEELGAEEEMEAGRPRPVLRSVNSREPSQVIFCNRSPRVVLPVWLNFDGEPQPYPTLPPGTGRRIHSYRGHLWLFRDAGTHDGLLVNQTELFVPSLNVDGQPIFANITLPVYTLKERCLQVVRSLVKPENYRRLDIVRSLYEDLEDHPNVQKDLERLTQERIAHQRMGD
T1 sequence (Q15370 whole entry partner, the tested form may be a part): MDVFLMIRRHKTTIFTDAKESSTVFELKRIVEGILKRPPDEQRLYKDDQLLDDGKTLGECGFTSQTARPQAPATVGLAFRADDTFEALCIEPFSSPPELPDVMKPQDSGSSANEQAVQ
T1 sequence (Q15369 whole entry partner, the tested form may be a part): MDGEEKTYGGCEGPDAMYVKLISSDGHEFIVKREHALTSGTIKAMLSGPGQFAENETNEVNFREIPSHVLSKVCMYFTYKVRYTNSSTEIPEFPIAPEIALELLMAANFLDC

As to `COc1cc2c(Oc3ccc(NC(=O)C4(C(=O)Nc5ccc(F)cc5)CC4)cc3F)ccnc2cc1OCCOCCOCCOc1cc(-c2scnc2C)ccc1CNC(=O)[C@@H]1C[C@@H](O)CN1C(=O)[C@H](C(C)C)N1Cc2ccccc2C1=O` [compound 46], the “leftward shift of ternary affinity from the VHL:PROTAC binary affinity” value in test [1] (SPR) is around 8 fold. In test [1] (SPR, immobilized GST-VBC), this molecule showed a koff of 0.0175 s⁻¹, a kon of 39600 M⁻¹ s⁻¹ and a residence time of 5.5 min. Further, the “p38δ:PROTAC:VHL kon” value in test [1] (SPR, immobilized GST-VBC, listed as Ex. 46) worked out at 39621 M⁻¹ s⁻¹. The Kd in test [1] (read-out: p38δ:PROTAC:VHL Kd) worked out at 0.436 µM. Also, in test [2], the “change in mRNA for either p38 isoform” value is on record as “no significant changes in mRNA”.
On to `COc1cc2c(Oc3ccc(NC(=O)C4(C(=O)Nc5ccc(F)cc5)CC4)cc3F)ccnc2cc1OCCCCOCCCCOCC(=O)N[C@H](C(=O)N1C[C@H](O)C[C@H]1C(=O)NCc1ccc(-c2scnc2C)cc1)C(C)(C)C` [compound 50, N-(3-fluoro-4-((7-(4-(4-(2-(((S)-1-((2S,4R)-4-hydroxy-2-((4-(4-methylthiazol-5-yl)benzyl)carbamoyl)pyrrolidin-1-yl)-3,3-dimethyl-1-oxobutan-2-yl)amino)-2-oxoethoxy)butoxy)buto-xy)-6-methoxyquinolin-4-yl)oxy)phenyl)-N-(4-fluorophenyl)cyclopropane-1,1-dicarboxa-mide], for which, in test [1] (SPR), the “off-rate quicker than the p38δ:compound 46:VHL complex” value is reported as around 5 fold, the “residence time shorter than the p38δ:compound 46:VHL complex” value is recorded as around 4 fold and the “ternary affinity weaker than the exemplary compound 46-induced complex” value is around 3 fold. In test [1] (SPR, immobilized GST-VBC), this molecule showed a kon of 70100 M⁻¹ s⁻¹ and a residence time of 1.33 min. Moreover, in test [1] (setting [3]), the “p38δ:PROTAC:VHL koff” value is 0.072 s⁻¹ and the “p38δ:PROTAC:VHL kon” value worked out at 70119 M⁻¹ s⁻¹. In test [1] (read-out: p38δ:PROTAC:VHL affinity), the Kd is 1.2 µM and > 1 µM. Besides, in test [2], the “change in mRNA for either p38 isoform” value is given as “no significant changes in mRNA”.
